The values that follow come from US7754722B2, “Piperazine derivatives and methods of use” (Merck Serono SA, priority 2002, dated 2010).

The test deals with T1, FSH receptor (Homo sapiens, UniProt P23945).
T1 construct: expressed in transfected cells; host or cells: CHO (Chinese Hamster Ovary) cells, stably transfected, carrying a cAMP response element-luciferase reporter
T1 sequence (P23945 18-695): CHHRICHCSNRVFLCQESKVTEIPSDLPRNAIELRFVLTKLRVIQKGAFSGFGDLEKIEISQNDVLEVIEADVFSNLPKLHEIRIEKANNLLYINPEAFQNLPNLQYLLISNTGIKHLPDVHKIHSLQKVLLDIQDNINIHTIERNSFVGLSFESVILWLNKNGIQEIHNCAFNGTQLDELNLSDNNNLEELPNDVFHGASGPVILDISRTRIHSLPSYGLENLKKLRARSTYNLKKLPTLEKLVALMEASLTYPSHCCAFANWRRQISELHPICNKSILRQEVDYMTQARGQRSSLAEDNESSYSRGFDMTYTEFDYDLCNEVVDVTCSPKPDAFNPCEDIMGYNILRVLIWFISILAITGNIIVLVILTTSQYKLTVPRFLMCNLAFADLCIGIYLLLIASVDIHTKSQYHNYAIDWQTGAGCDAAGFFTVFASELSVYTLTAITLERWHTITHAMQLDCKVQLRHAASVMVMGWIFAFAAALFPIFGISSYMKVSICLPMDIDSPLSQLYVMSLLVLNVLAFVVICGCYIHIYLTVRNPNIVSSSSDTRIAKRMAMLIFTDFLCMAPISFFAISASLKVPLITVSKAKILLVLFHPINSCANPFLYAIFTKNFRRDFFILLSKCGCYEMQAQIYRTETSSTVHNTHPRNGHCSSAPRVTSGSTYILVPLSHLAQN
Kind of test: FSH assay: cAMP response element luciferase reporter in CHO cells expressing recombinant FSH receptor. The note with it: agonist activity; CHO cells stably transfected with recombinant FSH receptor; luciferase luminescence; log-dose-response curves; incubation 37° C. for 3 hrs 30 min; read-out: ED50 (the source's name). Type of test: cell-based. As to the method:
Compounds of the invention were tested in the following assay.
All compounds of the invention were stored in 96-well deepwell plates in DMSO at a nominal concentration of 10 μM. Compounds of the invention were screened for agonist activity at the FSH receptor using the recombinant FSH receptor stably transfected and expressed in Chinese Hamster Ovary Cells (CHO cells) essentially as described in the work by Kelton, et al. Molecular and Cellular Endocrinology, 1992, 89, 141-151). […] Thus an agonist at the FSH receptor increases cAMP in the cell which results in activation of the CREB (cAMP) response element binding protein). The substrate for the enzyme (Packard Instrument Company 800 Research Parkway, Meriden, Conn. 06450, USA) was added to the cells after appropriate incubation with the compounds or FSH and the amount of luciferase expressed was measured by quantitating the luminescence produced by the enzyme using a TopCount scintillation/luminescence counter running in single photon counting mode. A compound which acts as an agonist at the receptor should produce light from the treated cells in proportion to its concentration within the incubation. Luminescence should be saturable at high concentrations of the compound.
The compounds of the invention, in deepwell plates (Master plates) as indicated above were loaded on the robotic deck along with the appropriate number of assay plates and daughter plates. A 10 μl aliquot from each master plate was transferred to the corresponding daughter plate and 90 μl of DME/F12 was added and mixed within each well. 20 μl was then removed from the daughter plate and dispensed into the assay plate. After addition of an aliquot of FSH (equivalent to an EC100 response for this hormone to each of three wells on the plate, 80 μl of media (DME/F 12±2% serum) and 100 μl aliquot of cells (4×10^5/ml in the same media) were added and the plate incubated at 37° C. for 3 hrs 30 min. At this time the plate was removed from the incubator and media in each well was aspirated and the cells adhering to the bottom of the plate washed with 300 μl PBS containing 1 mM Ca^2+ and 1 mM Mg^2+. The PBS was aspirated and 100 μl PBS added to each well. 100 μl of Lucite (prepared as described by the manufacturer) was added to each well and the plate was shaken gently for 40 seconds prior to placement in the TopCount plate reader. After allowing 3.5 minutes for the plate to dark-adapt within the machine, the amount of luminescence generated was quantitated using Single Photon Counting mode. The data was transmitted electronically from the TopCount to the robot processing computer terminal and was renamed with an ID corresponding to the original master plate ID. […] LDR (log-dose-response) curves were generated for these compounds in CHO cells containing the FSH receptor and these curves were also compared with those in either cells expressing a different Gs linked receptor or in cells lacking any transfected receptor.
For orientation: In a reporter assay the amount or activity of a reporter protein is the signal.
In the case of `CCCCCCN1CCN(S(=O)(=O)c2ccc(F)cc2)[C@H](C(=O)Nc2ccc3c(c2)nc(-c2cccnc2)n3CC)C1` [1-(4-fluoro-benzenesulfonyl)-4-hexyl-piperazine-2-carboxylic acid (1-ethyl-2-pyridin-3-yl-1H-benzoimidazol-5-yl)amide], the EC50 came to 167 nM. The result for `CCCCCN1CCN(S(=O)(=O)c2cccs2)C(C(=O)Nc2ccc3[nH]c4c(c3c2)CCNC4=O)C1` (stereo not drawn) [4-pentyl-1-(thiophene-2-sulfonyl)-piperazine-2-carboxylic acid (1-oxo-2,3,4,9-tetrahydro-1H-beta-carbolin-6-yl)amide] reads 220 nM. On to `CCCCCCCCN1CCN(S(=O)(=O)c2cccs2)[C@H](C(=O)Nc2ccc3c(c2)nc(-c2ccncc2)n3CC)C1` [4-octyl-1-(thiophene-2-sulfonyl)-piperazine-2-carboxylic acid (1-ethyl-2-pyridin-4-yl-1H-benzoimidazol-5-yl)amide], for which the EC50 came out at 54 nM. As for `CCOC(=O)CN1CCN(S(=O)(=O)c2cccs2)[C@H](C(=O)Nc2ccc3c(c2)c2ccccc2n3CC)C1` [3-(9-ethyl-9H-carbazol-3-ylcarbamoyl)-4-(thiophene-2-sulfonyl)-piperazin-1-yl] acetic acid ethyl ester], the EC50 was determined as 610 nM.

For the molecule `CCCCCNC(=O)N1CCN(S(=O)(=O)c2cccs2)[C@H](C(=O)Nc2cccc(-c3ccncc3)c2)C1` [4-(thiophene-2-sulfonyl)-piperazine-1,3-dicarboxyclic acid 1-pentylamide 3-[(3-pyridin-4-yl-phenyl)-amide]], the EC50 is 5000 nM. Turning to `CCCCCNC(=O)N1CCN(S(=O)(=O)c2cccs2)[C@H](C(=O)Nc2ccc3c(c2)c2ccccc2n3CC)C1` [4-(thiophene-2-sulfonyl)-piperazine-1,3-dicarboxylic acid 3-[(9-ethyl-9H-carbazol-3-yl)amide]-1-pentylamide], the EC50 was 63 nM.

For the molecule `CCCCCNC(=O)N1CCN(S(=O)(=O)c2cn(C)cn2)[C@H](C(=O)Nc2ccc3c(c2)c2ccccc2n3CC)C1` [4-(1-methyl-1H-imidazole-4-sulfonyl)-piperazine-1,3-dicarboxylic acid 3-[(9-ethyl-9H-carbazol-3-yl)-amide]1-pentylamide], the EC50 was 3160 nM.
